Measured values taken from US20040028646A1, “Particle formation” (priority 2002, published 2004).

Tested on: lysozyme
Assay: Retention of original lysozyme activity after Nektar SCF processing
Format: biochemical
Conditions: after Nektar SCF processing at 0° C., 100 bar

Substance | Retained original (pre-Nektar SCF) activity
Experiment 8.2: conjugate of the protein lysozyme with linear mPEG of 5 kDaltons | 108%
Experiment 8.1: unconjugated lysozyme subjected to Nektar SCF processing from 20 mg/ml aqueous solution | 105%
